Tests used:
[1] = tested on: antibodies in sera from SARS patients (sera 1a, 1b, 2, 6, 37, 62, London, SARS-yellow, SARS-green); type: binding, human; set-up: Binding of serum 6 to linear peptides of protein X1 of SARS-CoV Urbani / Binding of serum 37 to linear peptides of protein X1 of SARS-CoV Urbani / Binding of serum 6 to looped/cyclic peptide (PEPSCAN-ELISA) / Binding of serum 37 to looped/cyclic peptide (PEPSCAN-ELISA) / Binding of serum 37 to looped/cyclic peptides of protein X1 of SARS-CoV Urbani / Binding of serum 6 to linear peptides of protein X2 / Binding of serum 37 to linear peptides of protein X2 / Binding of serum 37 to looped/cyclic peptides of protein X2 of SARS-CoV Urbani / Binding of serum 6 to linear peptides of protein M of SARS-CoV Urbani / Binding of serum 37 to linear peptides of protein M of SARS-CoV Urbani / Binding of serum 6 to looped/cyclic peptides of protein M of SARS-CoV Urbani / Binding of serum 37 to looped/cyclic peptides of protein M of SARS-CoV Urbani / Binding of serum 6 to linear peptides of protein X3 of SARS-CoV Urbani / Binding of serum 37 to linear peptides of protein X3 of SARS-CoV Urbani / Binding of serum 37 to looped/cyclic peptides of protein X3 of SARS-CoV Urbani / Binding of serum 6 to linear peptides of protein X4 of SARS-CoV Urbani / Binding of serum 37 to linear peptides of protein X4 of SARS-CoV Urbani / Binding of serum 37 to looped/cyclic peptides of protein X4 of SARS-CoV Urbani / Binding of serum 6 to linear peptides of protein X5 of SARS-CoV Urbani / Binding of serum 37 to linear peptides of protein X5 of SARS-CoV Urbani / Binding of serum 37 to looped/cyclic peptides of protein X5 of SARS-CoV Urbani / Binding of serum 6 to linear peptides of protein N of SARS-CoV Urbani / Binding of serum 37 to linear peptides of protein N of SARS-CoV Urbani / Binding of serum 6 to linear peptide (PEPSCAN-ELISA) / Binding of serum 1a to looped/cyclic peptides of protein N of SARS-CoV Urbani / Binding of serum 1b to looped/cyclic peptides of protein N of SARS-CoV Urbani / Binding of serum 2 to looped/cyclic peptides of protein N of SARS-CoV Urbani / Binding of serum 6 to looped/cyclic peptides of protein N of SARS-CoV Urbani / Binding of serum 37 to looped/cyclic peptides of protein N of SARS-CoV Urbani / Binding of serum 62 to looped/cyclic peptides of protein N of SARS-CoV Urbani / Binding of serum London to looped/cyclic peptides of protein N of SARS-CoV Urbani / Binding of serum SARS-green to looped/cyclic peptides of protein N of SARS-CoV Urbani: unit not given here
[2] = tested on: rabbit serum obtained by immunizing a rabbit with the SARS-CoV strain Frankfurt 1; type: binding; set-up: Binding of a rabbit serum to linear peptides / Binding of a rabbit serum to looped peptides / Rabbit serum linear peptides / Rabbit serum looped peptides / Binding of a rabbit serum to linear peptides of protein N of SARS-CoV Urbani (Rabbit serum linear peptides) / Binding of a rabbit serum to looped/cyclic peptides of protein N of SARS-CoV Urbani (Rabbit serum looped peptides): unit not given here
[3] = tested on: control sera (pooled serum of ten healthy LUMC hospital workers; commercial negative donor pooled serum from the Dutch bloodbank); type: binding, human; set-up: Binding of Control serum LUMC to linear peptides / Binding of Control serum Blood-bank to linear peptides / Binding of Control serum LUMC to looped peptides / Binding of Control Serum Blood-Bank to Looped peptides / Binding of Control serum LUMC to linear peptides of the protein M of SARS-CoV Urbani / Binding of Control serum Blood-bank to linear peptides of the protein M of SARS-CoV Urbani / Binding of Control serum LUMC to looped peptides of the protein M of SARS-CoV Urbani / Binding of Control Serum Blood-Bank to Looped peptides of the protein M of SARS-CoV Urbani: unit not given here

PVTLACFVLAAVYRI was tested, and the “Binding of serum 1a to linear peptides of protein M of SARS-CoV Urbani” value [1] was 0.7, the “Binding of serum 1a to looped/cyclic peptides of protein M of SARS-CoV Urbani” value [1] was 0.7 and the “Binding of serum 1b to linear peptides of protein M of SARS-CoV Urbani” value [1] was 0.5. For the same sequence, the “Binding of serum 1b to looped/cyclic peptides of protein M of SARS-CoV Urbani” value [1] was 0.6, the “Binding of serum 2 to linear peptides of protein M of SARS-CoV Urbani” value [1] was 0.5 and the “Binding of serum 2 to looped/cyclic peptides of protein M of SARS-CoV Urbani” value [1] was 0.6. The “Binding of serum 6 to linear peptides of protein M of SARS-CoV Urbani” value [1] was 0.3, the “Binding of serum 6 to looped/cyclic peptides of protein M of SARS-CoV Urbani” value [1] was 0.7 and the “Binding of serum 37 to linear peptides of protein M of SARS-CoV Urbani” value [1] was 0.6. For the same sequence, the “Binding of serum 37 to looped/cyclic peptides of protein M of SARS-CoV Urbani” value [1] was 0.7, the “Binding of serum 62 to linear peptides of protein M of SARS-CoV Urbani” value [1] was 0.7 and the “Binding of serum 62 to looped/cyclic peptides of protein M of SARS-CoV Urbani” value [1] was 0.7. The “Binding of serum London to linear peptides of protein M of SARS-CoV Urbani” value [1] was 0.3, the “Binding of serum London to looped/cyclic peptides of protein M of SARS-CoV Urbani” value [1] was 0.2 and the “Binding of serum SARS-green to linear peptides of protein M of SARS-CoV Urbani” value [1] was 0.2. The “Binding of serum SARS-green to looped/cyclic peptides of protein M of SARS-CoV Urbani” value [1] was 0.2, the “Binding of serum SARS-yellow to linear peptides of protein M of SARS-CoV Urbani” value [1] was 0.0 and the “Binding of serum SARS-yellow to looped/cyclic peptides of protein M of SARS-CoV Urbani” value [1] was 0.6. The “Rabbit serum linear peptides” value [2] was 0.4, the “Rabbit serum looped peptides” value [2] was 0.3 and the “Binding of Control Serum Blood-Bank to Looped peptides of the protein M of SARS-CoV Urbani” value [3] was 0.6. The “Binding of Control serum Blood-bank to linear peptides of the protein M of SARS-CoV Urbani” value [3] was 0.5, the “Binding of Control serum LUMC to linear peptides of the protein M of SARS-CoV Urbani” value [3] was 0.2 and the “Binding of Control serum LUMC to looped peptides of the protein M of SARS-CoV Urbani” value [3] was 0.7.

In the case of QCINACRIIMRCWLC, the “Binding of serum 1a to linear peptides of protein X1 of SARS-CoV Urbani” value [1] is reported as 0.8, the “Binding of serum 1a to looped/cyclic peptide (PEPSCAN-ELISA)” value [1] is reported as 0.6 and the “Binding of serum 1b to linear peptides of protein X1 of SARS-CoV Urbani” value [1] is reported as 0.6. The “Binding of serum 1b to looped/cyclic peptide (PEPSCAN-ELISA)” value [1] was 0.4, the “Binding of serum 2 to linear peptides of protein X1 of SARS-CoV Urbani” value [1] was 0.5 and the “Binding of serum 2 to looped/cyclic peptide (PEPSCAN-ELISA)” value [1] was 0.6. For the same sequence, the “Binding of serum 6 to linear peptides of protein X1 of SARS-CoV Urbani” value [1] was 0.8, the “Binding of serum 6 to looped/cyclic peptide (PEPSCAN-ELISA)” value [1] was 0.8 and the “Binding of serum 37 to linear peptides of protein X1 of SARS-CoV Urbani” value [1] was 0.7. For the same sequence, the “Binding of serum 37 to looped/cyclic peptide (PEPSCAN-ELISA)” value [1] was 0.6, the “Binding of serum 62 to linear peptides of protein X1 of SARS-CoV Urbani” value [1] was 0.7 and the “Binding of serum 62 to looped/cyclic peptide (PEPSCAN-ELISA)” value [1] was 0.7. The “Binding of serum London to linear peptides of protein X1 of SARS-CoV Urbani” value [1] was 0.4, the “Binding of serum London to looped/cyclic peptide (PEPSCAN-ELISA)” value [1] was 1.4 and the “Binding of serum SARS-green to linear peptides of protein X1 of SARS-CoV Urbani” value [1] was 0.2. The “Binding of serum SARS-green to looped/cyclic peptide (PEPSCAN-ELISA)” value [1] was 0.2, the “Binding of serum SARS-yellow to linear peptides of protein X1 of SARS-CoV Urbani” value [1] was 0.3 and the “Binding of serum SARS-yellow to looped/cyclic peptide (PEPSCAN-ELISA)” value [1] was 0.4. The “Recognition of the peptide by the rabbit serum” value [2] was “recognized”, the “Binding of Control Serum Blood-Bank to Looped peptides” value [3] was 0.6 and the “Binding of Control serum Blood-bank to linear peptides” value [3] was 0.9. For the same sequence, the “Binding of Control serum LUMC to linear peptides” value [3] was 0.7 and the “Binding of Control serum LUMC to looped peptides” value [3] was 0.7.
